According to patent publication US12522585B2, “Method for preparing 2-chloro-n-(1-cyanocyclopropyl)-5-[2′-methyl-5′-(pentafluoroethyl)-4′-(trifluoromethyl)-2′h-1,3′-bipyrazol-4-yl]benzamide” ([…], priority 2020, dated 2026):

Assay: TGA of the product prepared in example 6
Format: physicochemical
Details: up to 150° C.
Source text: The product prepared in example 6 was investigated by TGA.

Cn1nc(C(F)(F)C(F)(F)F)c(C(F)(F)F)c1-n1cc(-c2ccc(Cl)c(C(=O)NC3(C#N)CC3)c2)cn1 [example 6, 2-chloro-N-(1-cyanocyclopropyl)-5-[2′-methyl-5′-(pentafluoroethyl)-4′-(trifluoromethyl)-2′H-1,3′-bipyrazol-4-yl]benzamide]
loss of mass (TGA): no loss of mass
